Laboratory results taken from ChEMBL document CHEMBL3045432, “Synthesis and Fungicidal Activity of -Cyanoacetamide Derivatives: Discovery of a New Rice Blast Fungicide, Diclocymet (S-2900)” (2002).
≈ marks a conversion by molar mass, not a printed value.

How the values were obtained:
Type in all cases: functional
Pyricularia grisea [1] = test: Fungicidal activity against Magnaporthe grisea in rice plant assessed as prevention from rice blast disease measured as lesions under greenhouse at > 200 ppm for 8 days by foliar spray compound treated before inoculation
Pyricularia grisea [2] = test: Fungicidal activity against Magnaporthe grisea in rice plant assessed as prevention from rice blast disease measured as lesions under greenhouse at > 200 ppm for 8 days by soil drench compound treated before inoculation
Pyricularia grisea [3] = test: Fungicidal activity against Magnaporthe grisea in rice plant assessed as rice blast disease measured as damage under greenhouse by foliar spray for 8 days compound treated before inoculation; settings: 192 h
Pyricularia grisea [4] = test: Fungicidal activity against Magnaporthe grisea in rice plant assessed as rice blast disease measured as damage under greenhouse at 25 ppm for 8 days by foliar spray compound treated before inoculation
Pyricularia grisea [5] = test: Fungicidal activity against Magnaporthe grisea in rice plant assessed as rice blast disease measured as damage under greenhouse at 6.3 ppm for 8 days by foliar spray compound treated before inoculation
Pyricularia grisea [6] = test: Fungicidal activity against Magnaporthe grisea in rice plant assessed as rice blast disease measured as damage under greenhouse at 1.6 ppm for 8 days by foliar spray compound treated before inoculation
Pyricularia grisea [7] = test: Fungicidal activity against Magnaporthe grisea in rice plant assessed as rice blast disease measured as damage under greenhouse at 0.4 ppm for 8 days by foliar spray compound treated before inoculation
Pyricularia grisea [8] = test: Fungicidal activity against Magnaporthe grisea in rice plant assessed as prevention from rice blast disease measured as lesions under greenhouse at 3.1 ppm for 8 days by foliar spray compound treated before inoculation
Pyricularia grisea [9] = test: Fungicidal activity against Magnaporthe grisea in rice plant assessed as prevention from rice blast disease measured as lesions under greenhouse at 50 ppm for 8 days by soil drench compound treated before inoculation
Pyricularia grisea [10] = test: Fungicidal activity against Magnaporthe grisea in rice plant assessed as prevention from rice blast disease measured as lesions under greenhouse at 12.5 ppm for 8 days by foliar spray compound treated before inoculation
Pyricularia grisea [11] = test: Fungicidal activity against Magnaporthe grisea in rice plant assessed as prevention from rice blast disease measured as lesions under greenhouse at 12.5 ppm for 8 days by soil drench compound treated before inoculation
Pyricularia grisea [12] = test: Fungicidal activity against Magnaporthe grisea in rice plant assessed as prevention from rice blast disease measured as lesions under greenhouse at 50 ppm for 8 days by foliar spray compound treated before inoculation
Pyricularia grisea [13] = test: Fungicidal activity against Magnaporthe grisea in rice plant assessed as prevention from rice blast disease measured as lesions under greenhouse at 200 ppm for 8 days by foliar spray compound treated before inoculation
Pyricularia grisea [14] = test: Fungicidal activity against Magnaporthe grisea in rice plant assessed as prevention from rice blast disease measured as lesions under greenhouse at 200 ppm for 8 days by soil drench compound treated before inoculation

`CC(NC(=O)C(C#N)C(C)(C)C)c1ccc(Cl)cn1` (stereo unspecified) was tested, and the Activity (Pyricularia grisea [1]) was “<=10%” and the Activity (Pyricularia grisea [2]) was “<=10%”.
Molecule `C[C@@H](NC(=O)[C@@H](C#N)C(C)(C)C)c1ccc(Cl)cc1Cl` has an MIC (Pyricularia grisea [3]) of 0.16 µg/mL (≈ 0.511 µM), an Activity (Pyricularia grisea [4]) of 4% and an Activity (Pyricularia grisea [5]) of 3%. For the same molecule, the Activity (Pyricularia grisea [6]) was 2% and the Activity (Pyricularia grisea [7]) was 0%.
For `C=CC(C)(C)C(C#N)C(=O)NC(C)c1ccc(Cl)cc1OC` (stereo unspecified), the Activity (Pyricularia grisea [8]) was “<=10%” and the Activity (Pyricularia grisea [9]) was “<=10%”.
For `C[C@H](NC(=O)[C@H](C#N)C(C)(C)C)c1ccc(Cl)cc1Cl`, the MIC (Pyricularia grisea [3]) was > 20 µg/mL, the Activity (Pyricularia grisea [4]) was 0% and the Activity (Pyricularia grisea [5]) was 0%. For the same molecule, the Activity (Pyricularia grisea [6]) was 0% and the Activity (Pyricularia grisea [7]) was 0%.
With `C=CC(C)(C)C(C#N)C(=O)NC(C)c1ccc(Cl)cc1Cl` (stereo unspecified) the Activity (Pyricularia grisea [10]) was “<=10%” and the Activity (Pyricularia grisea [9]) was “<=10%”.
In the case of `C=CC(C)(C)C(C#N)C(=O)NC(C)c1ccc(Cl)cc1C` (stereo unspecified), the Activity (Pyricularia grisea [2]) was “<=10%”.
With `C[C@@H](NC(=O)[C@H](C#N)C(C)(C)C)c1ccc(Cl)cc1Cl` the MIC (Pyricularia grisea [3]) was 0.04 µg/mL (≈ 0.128 µM), the Activity (Pyricularia grisea [4]) was 5% and the Activity (Pyricularia grisea [5]) was 4%. For the same molecule, the Activity (Pyricularia grisea [6]) was 4% and the Activity (Pyricularia grisea [7]) was 3%.
With `C[C@H](NC(=O)[C@@H](C#N)C(C)(C)C)c1ccc(Cl)cc1Cl` the MIC (Pyricularia grisea [3]) was > 20 µg/mL, the Activity (Pyricularia grisea [4]) was 0% and the Activity (Pyricularia grisea [5]) was 0%. The Activity (Pyricularia grisea [6]) was 0% and the Activity (Pyricularia grisea [7]) was 0%.
For `C=CC(C)(C)C(C#N)C(=O)NC(C)c1ccc(Cl)cc1F` (stereo unspecified), the Activity (Pyricularia grisea [8]) was “<=10%” and the Activity (Pyricularia grisea [11]) was “<=10%”.
With `CC(NC(=O)C(C#N)C(C)(C)C)c1ccc(Cl)c(Cl)c1` (stereo unspecified) the Activity (Pyricularia grisea [12]) was “<=10%” and the Activity (Pyricularia grisea [9]) was “<=10%”.
In the case of `CC(NC(=O)C(C#N)C(C)(C)C)c1ccc(Cl)cc1Cl` (stereo unspecified), the Activity (Pyricularia grisea [8]) was “<=10%” and the Activity (Pyricularia grisea [9]) was “<=10%”.
For `CC(NC(=O)C(C#N)C(C)(C)C)c1ccc(OC(F)(F)C(F)F)cc1` (stereo unspecified), the Activity (Pyricularia grisea [13]) was “<=10%” and the Activity (Pyricularia grisea [14]) was “<=10%”.
`CC(NC(=O)C(C#N)C(C)(C)C)c1ccccc1Cl` (stereo unspecified) was tested, and the Activity (Pyricularia grisea [14]) was “<=10%”.
`CC(NC(=O)C(C#N)C(C)(C)C)c1cccc(Cl)c1` (stereo unspecified) was tested, and the Activity (Pyricularia grisea [13]) was “<=10%” and the Activity (Pyricularia grisea [14]) was “<=10%”.
`CC(NC(=O)C(C#N)C(C)(C)C)c1ccc(OC(F)F)cc1` (stereo unspecified) was tested, and the Activity (Pyricularia grisea [12]) was “<=10%” and the Activity (Pyricularia grisea [9]) was “<=10%”.
`CC(NC(=O)C(C#N)C(C)(C)C)c1ccc(OC(F)(F)F)cc1` (stereo unspecified) was tested, and the Activity (Pyricularia grisea [12]) was “<=10%” and the Activity (Pyricularia grisea [9]) was “<=10%”.
`CC(NC(=O)C(C#N)C(C)(C)C)c1ccc(C(F)(F)F)cc1` (stereo unspecified) was tested, and the Activity (Pyricularia grisea [8]) was “<=10%” and the Activity (Pyricularia grisea [9]) was “<=10%”.
In the case of `Cc1ccc(C(C)NC(=O)C(C#N)C(C)(C)C)cc1` (stereo unspecified), the Activity (Pyricularia grisea [8]) was “<=10%” and the Activity (Pyricularia grisea [9]) was “<=10%”.
`COc1ccc(C(C)NC(=O)C(C#N)C(C)(C)C)cc1` (stereo unspecified) was tested, and the Activity (Pyricularia grisea [13]) was “<=10%” and the Activity (Pyricularia grisea [14]) was “<=10%”.
With `CC(C)(C)C(C#N)C(=O)Nc1ccc(Cl)cc1` (stereo unspecified) the Activity (Pyricularia grisea [1]) was “<=10%” and the Activity (Pyricularia grisea [2]) was “<=10%”.
With `CC(C)(C)C(C#N)C(=O)NCc1ccc(Cl)cc1` (stereo unspecified) the Activity (Pyricularia grisea [13]) was “<=10%” and the Activity (Pyricularia grisea [14]) was “<=10%”.
For `CCC(NC(=O)C(C#N)C(C)(C)C)c1ccc(Cl)cc1` (stereo unspecified), the Activity (Pyricularia grisea [1]) was “<=10%” and the Activity (Pyricularia grisea [2]) was “<=10%”.
In the case of `CC(NC(=O)C(C#N)C(C)(C)C)c1ccc(Cl)nc1` (stereo unspecified), the Activity (Pyricularia grisea [13]) was “<=10%” and the Activity (Pyricularia grisea [2]) was “<=10%”.
With `CC(NC(=O)C(C#N)C(C)(C)C)c1ccc(Cl)s1` (stereo unspecified) the Activity (Pyricularia grisea [13]) was “<=10%” and the Activity (Pyricularia grisea [2]) was “<=10%”.
In the case of `CC(NC(=O)C(C#N)C(C)(C)C)c1ccccc1` (stereo unspecified), the Activity (Pyricularia grisea [13]) was “<=10%” and the Activity (Pyricularia grisea [2]) was “<=10%”.
With `CC(NC(=O)C(C#N)C(C)(C)C)c1ccc(F)cc1` (stereo unspecified) the Activity (Pyricularia grisea [13]) was “<=10%” and the Activity (Pyricularia grisea [2]) was “<=10%”.
With `CC(NC(=O)C(C#N)C(C)(C)C)c1ccc(Br)cc1` (stereo unspecified) the Activity (Pyricularia grisea [8]) was “<=10%” and the Activity (Pyricularia grisea [11]) was “<=10%”.
In the case of `CC(C)NC(=O)C(C#N)C(C)(C)C` (stereo unspecified), the Activity (Pyricularia grisea [1]) was “<=10%” and the Activity (Pyricularia grisea [2]) was “<=10%”.
With `CC(C)C(C)NC(=O)C(C#N)C(C)(C)C` (stereo unspecified) the Activity (Pyricularia grisea [1]) was “<=10%” and the Activity (Pyricularia grisea [2]) was “<=10%”.
With `CC(NC(=O)C(C#N)=C1CCCC1)c1ccc(Cl)cc1` (stereo unspecified) the Activity (Pyricularia grisea [13]) was “<=10%” and the Activity (Pyricularia grisea [14]) was “<=10%”.
With `CC(NC(=O)C(C#N)=C1CCCCC1)c1ccc(Cl)cc1` (stereo unspecified) the Activity (Pyricularia grisea [1]) was “<=10%” and the Activity (Pyricularia grisea [2]) was “<=10%”.
For `CCC(CC)=C(C#N)C(=O)NC(C)c1ccc(Cl)cc1` (stereo unspecified), the Activity (Pyricularia grisea [12]) was “<=10%” and the Activity (Pyricularia grisea [14]) was “<=10%”.
With `CC(NC(=O)C1(C#N)CC1(C)C)c1ccc(Cl)cc1` (stereo unspecified) the Activity (Pyricularia grisea [1]) was “<=10%” and the Activity (Pyricularia grisea [2]) was “<=10%”.
